This is an account of results in patent US11285167B2, “Synergistic nutritional neuroprotective compositions for ameliorating neural dysfunction” (CELAGENEX RESEARCH (INDIA) PVT. LTD., priority 2019, dated 2022).

One assay has as its system TNF alpha. Kind of assay: TNF alpha level in global ischemia reperfusion induced brain injury (cerebral infarction) model. Format: in vivo, Wistar rats. The following applies: global ischemia (30 min)/72 h reperfusion, oral daily for 10 days, mean ± SEM, n = 6.
The subject of a further assay is Interleukin - 6. As to the kind of experiment: Interleukin-6 level in global ischemia reperfusion induced brain injury (cerebral infarction) model. Format: in vivo, Wistar rats. The settings on record: global ischemia (30 min)/72 h reperfusion, oral daily for 10 days, mean ± SEM, n = 6.
Assay [1] relates to Major depression disorder in Wistar rats. Kind of assay: Forced swim test in Reserpine-induced major depression disorder. The format is in vivo. The settings on record: for Immobility / mobility in forced swim test (in words): compared to disease control or to individual test substances.
Assay [2] deals with Valproic acid-induced autism disorder in albino Wistar rats. As to the kind of experiment: Overall autism-like behavior in VPA model of autism disorder. The format is in vivo. The protocol:
The present study was to evaluate the effect of test substances on Valproic acid induced Autism spectrum disorder in wistar rats. The animals (50 animals) were divided into five groups each group consisting of 10 animals (5 animals per sex). Animals in Group-1 were treated with vehicle (0.5% CMC), Group-2 was treated with Valproic acid (VPA) 400 mg/kg via subcutaneous route, Group-3, Group-4 and Group-5 were treated with test substance Agmatine Sulphate (25.83 mg/kg), Nicotinamide Riboside chloride (6.46 mg/kg) and Agmatine Sulphate+Nicotinamide Riboside chloride (25.83 mg/kg+6.46 mg/kg) respectively, according to the body weight of animals. At the end of the experimental period, blood was collected from each group for biochemical analyses. On postnatal day 40 (PND 40), all the animals were exposed to the Morris water maze test and Open field test for specific time periods to determine the autism-like behaviors of the test substances. […] The experiment was performed in 14-day old male and female off springs. The weight of the rat pups on the first day of the experiment was 20-40 grams. Sodium Valproate at dose of 400 mg/kg was freshly prepared and administered via subcutaneous route to the rat pups on postnatal day 14 (PND 14). […] In addition, behaviors of experimental animals were determined via Morris water maze and open field test. […]

Assay [3] has the same test system. Kind of assay: Morris water maze test in Valproic acid-induced autism disorder. The format is in vivo. Also on record: Escape latency / Retention time: unit not given here. The settings on record: for Escape latency / Retention time: PND 40, VPA 400 mg/kg, oral daily PND 14 to PND 40, mean ± SEM; for Learning and memory activities, Morris water maze (in words): PND 40, compared to Disease control or to Group-3 and Group-4. How it is done: The present study was to evaluate the effect of test substances on Valproic acid induced Autism spectrum disorder in wistar rats. The animals (50 animals) were divided into five groups each group consisting of 10 animals (5 animals per sex). Animals in Group-1 were treated with vehicle (0.5% CMC), Group-2 was treated with Valproic acid (VPA) 400 mg/kg via subcutaneous route, Group-3, Group-4 and Group-5 were treated with test substance Agmatine Sulphate (25.83 mg/kg), Nicotinamide Riboside chloride (6.46 mg/kg) and Agmatine Sulphate+Nicotinamide Riboside chloride (25.83 mg/kg+6.46 mg/kg) respectively, according to the body weight of animals. At the end of the experimental period, blood was collected from each group for biochemical analyses. On postnatal day 40 (PND 40), all the animals were exposed to the Morris water maze test and Open field test for specific time periods to determine the autism-like behaviors of the test substances. […] The experiment was performed in 14-day old male and female off springs. The weight of the rat pups on the first day of the experiment was 20-40 grams. Sodium Valproate at dose of 400 mg/kg was freshly prepared and administered via subcutaneous route to the rat pups on postnatal day 14 (PND 14). All the animals were divided into five groups and each group contained the same amount of male and female offspring (5 males and 5 females, per group). Animals in Group-1 served as Normal control and were treated with 0.5% CMC, Group-2 served as Disease control and were treated with VPA (400 mg/kg) via intraperitoneally (i.p.), whereas Group-3 was treated with Test-1 Agmatine Sulphate (25.83 mg/kg), Group-4 was treated with Test-2 Nicotinamide Riboside chloride (6.46 mg/kg) and Group-5 was treated with Test-1+Test-2 Agmatine Sulphate+Nicotinamide Riboside chloride (25.83 mg/kg+6.46 mg/kg). The assigned test substances were administered once daily from PND 14 to PND 40. In addition, behaviors of experimental animals were determined via Morris water maze and open field test. […] The dose volume administered to each rat was 10 ml/kg/day. Similarly, 0.5% CMC for Normal control and Disease control groups was administered orally at the same dose volume for a minimum of 26 consecutive days. The dose volume was calculated for individual animals on the first day of the treatment and was re-calculated according to the recent body weights recorded during the study. Daily individual dose volumes were recorded in the study records. The animals were exposed to a pool consisting of 4 quadrants (Northeast, Southeast, Southwest, and Northwest) which was filled with tap water (25° C., 40 cm deep) and covered with nontoxic milk. The removable platform was immersed below the water surface of one quadrant. Each animal had to memorize the location of the immersed platform by using specific visual cues placed around the outside of the tank. The time spent by each rat in finding and climbing on the immersed platform was recorded as the escape latency. Twenty-four hours later, the animal was re-exposed to the same condition, except that the immersed platform had been removed. The mean time that each rat spent in the target quadrant in order to search for the missing platform was noted as the retention time and was used as the index of retrieval memory. Both the escape latency and the retention time in a 5-minute exposure time were used as indices of learning and memory. A blind observer always stood at the same position, and care was taken not to disturb the relative location of water maze with respect to other objects in the laboratory. The determination of the spatial memory capacity via this test was done on PND 40.

Setting [4] is: forced swim test 5 min, Reserpine 1.0 mg/kg induced, oral daily 7 days, mean ± SEM, n = 6.

Regarding `N=C(N)NCCCCN.O=S(=O)(O)O` [Agmatine sulphate], in the assay on TNF alpha, the “TNF alpha Level” value worked out at 142.00 ± 1.53 pg/mL. Moreover, in the assay with Interleukin - 6, the “Interleukin - 6 Levels” value worked out at 91.39 ± 0.92 pg/mL. Further, the “Immobility / mobility in forced swim test (in words)” value in assay [1] is given as “mobility of the animals in the treatment groups increased”. In assay [1] (setting [4]), the Climbing was determined as 16.50 ± 0.43 and the Immobility is recorded as 99.67 ± 0.67. Moreover, the “Autism-like behavior (in words)” value in assay [2] is “improved autism-like behavior”. In assay [3] (Female), this compound came in with an Escape latency of 14.20 ± 0.37 and a Retention time of 24.80 ± 0.58. In assay [3] (Male), this compound returned an Escape latency of 14.00 ± 0.71 and a Retention time of 24.20 ± 0.73. Further, in assay [3], the “Learning and memory activities, Morris water maze (in words)” value was “significantly increased learning and memory activities”.
With `NC(=O)c1ccc[n+]([C@@H]2O[C@H](CO)[C@@H](O)[C@H]2O)c1.[Cl-]` [Nicotinamide Riboside chloride, nicotinamide riboside chloride], the “TNF alpha Level” value in the assay with TNF alpha is 160.33 ± 4.79 pg/mL. Moreover, in the assay with Interleukin - 6, the “Interleukin - 6 Levels” value stood at 109.56 ± 0.27 pg/mL. Further, the “Immobility / mobility in forced swim test (in words)” value in assay [1] is given as “mobility of the animals in the treatment groups increased”. For the same compound, in assay [1] (setting [4]), the Climbing was 15.50 ± 0.62, the Immobility amounted to 105.50 ± 0.85 and the “Total time spent in active swimming” value was determined as 185.33 ± 0.67 s. For the same compound, the “Autism-like behavior (in words)” value in assay [2] is on record as “improved autism-like behavior”. In assay [3] (Female), this compound returned an Escape latency of 15.20 ± 0.37 and a Retention time of 26.40 ± 0.68. In assay [3] (Male), this compound gave an Escape latency of 15.40 ± 0.51 and a Retention time of 26.20 ± 0.49. The “Learning and memory activities, Morris water maze (in words)” value in assay [3] is “significantly increased learning and memory activities”.
